Results published in publication PMC3310947 (Chemical biology & drug design, 2012).

Key:
[1] = target: T1, mouse Dvl1 PDZ domain (mDvl1 residues 247-341) (Mus musculus, UniProt P51141, C338A); experiment: […]-HSQC NMR chemical shift titration; format: binding
T1 sequence (P51141 247-341 C338A): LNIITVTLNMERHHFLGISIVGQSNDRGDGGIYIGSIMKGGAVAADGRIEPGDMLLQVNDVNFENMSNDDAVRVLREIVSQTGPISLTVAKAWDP

[2] = target: T1, mouse Dvl1 PDZ domain (mDvl1 residues 247-341); experiment: fluorescence polarization competition with Rox-DprC; format: binding

In the case of `CC(C)C[C@H](NC(=O)[C@H](Cc1ccccc1)NC(=O)c1ccc(F)cc1)C(=O)O` [J02-002], the Kd [1] is reported as 3.49 µM.

`CC(C)C[C@H](NC(=O)[C@H](Cc1ccccc1)NC(=O)c1cccc(F)c1)C(=O)O` [J02-001] showed a Kd [1] of 7.67 µM.

In the case of `Cc1ccc(C[C@H](NC(=O)c2cccc(C)c2)C(=O)N[C@@H](CC(C)C)C(=O)O)cc1` [J01-015], the Ki [2] is reported as 3.5 ± 0.21 µM and the Kd [1] is reported as 2.96 µM.

In the case of `Cc1ccc(C[C@H](NC(=O)c2cc(C)c(F)c(F)c2)C(=O)N[C@@H](CC(C)C)C(=O)O)cc1` [J01-017a], the Ki [2] is reported as 1.5 ± 0.52 µM.

Work on `Cc1ccc(C[C@H](NC(=O)c2cccc(C#N)c2)C(=O)N[C@@H](CC(C)C)C(=O)O)cc1` [J01-012] yielded a Kd [1] of 1.83 µM.

For `Cc1ccc(C[C@H](NC(=O)c2cccc(F)c2)C(=O)N[C@@H](CC(C)C)C(=O)O)cc1` [J01-007], the Ki [2] was 4.2 ± 0.46 µM and the Kd [1] was 2.27 µM.
